Drawing on US4857524A, “Thiazolidine compounds and therapeutic method” (Kissei Pharmaceutical Co., Ltd., priority 1987, dated 1989), this text covers IC50 for 10 compounds.

Each structure is given as a SMILES string. Square brackets hold non-standard residues; d marks the D form. Peptide text beside a SMILES is read from it. * marks the point of attachment. Thz = O=C(O)[C@@H]1CSCN1; Cbz = O=C(OCc1ccccc1)*

For orientation: IC50 means the concentration needed to halve the response being measured. A high value points to weaker potency.

The target of this experiment is T1, prolyl endopeptidase (Bos taurus, UniProt Q9XTA2).
T1 construct: the enzyme purified from bovine brain; from tissue; host or cells: bovine brain
T1 sequence (Q9XTA2 1-710): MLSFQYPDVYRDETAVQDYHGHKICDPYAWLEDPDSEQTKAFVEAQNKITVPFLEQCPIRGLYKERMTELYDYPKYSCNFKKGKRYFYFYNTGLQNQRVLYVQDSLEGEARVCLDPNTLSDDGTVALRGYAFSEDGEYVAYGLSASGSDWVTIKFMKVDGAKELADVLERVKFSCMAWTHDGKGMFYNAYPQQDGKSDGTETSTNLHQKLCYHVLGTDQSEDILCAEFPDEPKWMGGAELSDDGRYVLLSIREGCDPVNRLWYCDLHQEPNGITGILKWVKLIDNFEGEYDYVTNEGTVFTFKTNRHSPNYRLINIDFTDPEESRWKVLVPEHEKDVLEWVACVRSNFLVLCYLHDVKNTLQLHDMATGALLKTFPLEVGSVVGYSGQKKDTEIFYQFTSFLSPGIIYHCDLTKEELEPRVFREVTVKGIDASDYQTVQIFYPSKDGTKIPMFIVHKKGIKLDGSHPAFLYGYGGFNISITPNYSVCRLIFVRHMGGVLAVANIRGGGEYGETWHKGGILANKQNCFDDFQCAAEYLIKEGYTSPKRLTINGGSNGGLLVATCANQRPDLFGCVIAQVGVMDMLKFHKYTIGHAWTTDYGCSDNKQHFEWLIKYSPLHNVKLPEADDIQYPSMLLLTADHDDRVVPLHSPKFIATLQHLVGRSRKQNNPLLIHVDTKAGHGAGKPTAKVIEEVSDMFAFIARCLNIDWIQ
The experiment can be described thus: Inhibitory Effect for Prolyl Endopeptidase (enzyme purified from bovine brain). The experiment is classed as biochemical. How it is done: To 0.5 ml of the supernatant was added 0.5 ml of 0.1% sodium nitrite aqueous solution, and after 3 minutes, 0.5 ml of 0.5% ammonium sulfamate and 1 ml of 0.05% N-(1-naphthyl)ethylenediamine dihydrochloride in ethanol were further added . The mixture was left for 25 minutes at 37° C., and the absorbance was measured at 570 nm.
The unit of the enzyme activity (μmol/min/ml)=ΔOD×0.42×a dilution factor

Regarding `O=C([C@@H]1CSCN1C(=O)OCc1ccccc1)N1CCSC1` [Compound A, 3-[(R)-(-)-3-Benzyloxycarbonylthiazolidine-4-carbonyl]thiazolidine], the IC50 worked out at 0.26 nM.

In the case of `COC(=O)[C@@H]1CCCN1C(=O)[C@@H]1CSCN1C(=O)OCc1ccccc1` [Compound B, (S)-(-)-N-[(R)-(-)-3-Benzyloxycarbonylthiazolidine-4-carbonyl]pyrrolidine-2-carboxylic acid methyl ester] (Cbz-[Thz]-Pro-OMe), inhibition was half-maximal at 72000 nM (IC50).

In turn, `O=C([C@@H]1CSCN1C(=O)OCc1ccccc1)N1CCSCC1` [Compound F, N-[(R)-(-)-3-Benzyloxycarbonylthiazolidine-4-carbonyl]thiomorpholine] had an IC50 of 230000 nM.

With `COC(=O)[C@@H]1CSCN1C(=O)[C@@H]1CSCN1C(=O)OCc1ccccc1` [Compound G, (R)-(-)-3-[(R)-(-)-3-Benzyloxycarbonylthiazolidine-4-carbonyl]thiazolidine-4-carboxylic acid methyl ester] (Cbz-[Thz]-[Thz]-OMe), the IC50 was 210 nM.

In the case of `O=C([C@@H]1CSCN1C(=O)CCc1ccccc1)N1CCSC1` [Compound H, 33-[(R)-(-)-3-(3-Phenylpropionyl)thiazolidine-4-carbonyl]thiazolidine], the IC50 came out at 400 nM.

`O=C([C@@H]1CSCN1C(=O)Cc1ccccc1)N1CCSC1` [Compound N, 3-[(R)-(-)-3-Phenylacetylthiazolidine-4-carbonyl]thiazolidine] gave an IC50 of 63.1 nM.

`O=C([C@@H]1CSCN1C(=O)Cc1ccccc1)N1CCCC1` [Compound O, 1-[(R)-(-)-3-Phenylacetylthiazolidine-4-carbonyl]pyrrolidine] yielded an IC50 of 660 nM.

In turn, `O=C([C@@H]1CSCN1C(=O)C=Cc1ccccc1)N1CCSC1` [Compound P, 3-[(R)-(-)-3-Cinnamoylthiazolidine-4-carbonyl]thiazolidine] returned an IC50 of 3240 nM.

Compound `O=C([C@@H]1CSCN1C(=O)C=Cc1ccccc1)N1CCCC1` [Compound Q, 1-[(R)-(-)-3-Cinnamoylthiazolidine-4-carbonyl]pyrrolidine] showed an IC50 of 4600 nM.

With `O=C([C@@H]1CSCN1C(=O)c1ccncc1)N1CCSC1` [Compound U, 3-[(R)-(-)-3-Isonicotinoylthiazoidine-4-carbonyl]thiazolidine], the IC50 was 1300 nM.
